In PubChem BioAssay (NCI) one finds TGI and GI50 data, which are given here for 28 compounds.

Values joined by “and” are separate entries in the source; they are usually repeats but may differ in a detail not shown here. Identical values can stand only once.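 Where inhibition never reached the appropriate level, the endpoint shown equals the highest concentration tested. Otherwise, values were interpolated linearly from a five-concentration, 48-hour dose response in 96-well plates. GI50 is the concentration that inhibits growth by half. TGI: concentration producing complete growth inhibition.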 Some results are limits rather than exact numbers.

For one assay, the system named is K-562 leukemia. Kind of assay: NCI-60 cell line screen, 48 h.
As for `Cc1ccc(C)c(NC(=O)CC/C(=N\NC(=O)C(=O)NN)C(C)C(=O)c2ccc(O)cc2)c1` (stereo unspecified), the TGI was above 100 µM.
As to `N=C1CSC2=NC3=C(CCC/C3=C\c3ccccc3)C(c3ccccc3)N12` (stereo unspecified), the TGI worked out at 18.4 µM.
`COc1ccc(CNc2cc(OC)c(OC)c(OC)c2)cc1` came in with a TGI above 44.4 µM.
For `COc1ccccc1C1C(C(=O)Nc2ccccc2)=C(C)NC(C)=C1C(=O)Nc1ccccc1`, the TGI was above 100 µM.
`OCc1ccc2[n+](c1)CCC1c3ccccc3NC21` (stereo unspecified) gave a TGI above 300 µM.
With `COc1cccc(-c2cc(=O)c3cc(N(C)C)ccc3[nH]2)c1`, the GI50 is 0.00937 µM and 0.00404 µM; the TGI worked out at 0.0887 µM.
For `CCCCCCCCCCCC(=O)CC(=O)c1c(O)cccc1O`, the TGI came to 76.4 µM.
`CN(C(=O)C12C3C4C1C1C2C3C41C(=O)C(C)(C)C)C(C)(C)C` (stereo unspecified) registered a TGI above 100 µM.
Turning to `Cc1cc2c(cc1C)[n+](=O)c(C(=O)CC(=O)C(=O)Nc1c(C(C)C)cccc1C(C)C)c(C)n2[O-]`, the TGI is above 100 µM.
With `COc1ccc2cc1Oc1ccc(cc1)CC1c3cc(c(OC)cc3CCN1C)Oc1c3c(cc4c1C(C2)N(C)CC4)OCO3` (stereo unspecified), the TGI worked out at 4.17 µM.
Same read-out and setting: as for `COc1ccc(OC)c(NC(=O)C(=O)C(C(C)=O)c2nc3ccc(Cl)cc3[nH]c2=O)c1` (stereo unspecified), the figure is above 50 µM.

Another assay concerns SF-295 CNS. Kind of assay: NCI-60 cell line screen, 48 h.
In turn, `CC1(Cl)C(=O)NC(=O)N(C2CC(N=[N+]=[N-])C(CO)O2)C1N=[N+]=[N-]` (stereo unspecified) gave a TGI above 100 µM.
`COc1ccc2ccc3c(c2c1)CN1CCc2cc(OC)c(OC)cc2C1C3` (stereo unspecified): the TGI was above 100 µM.
On the same count and under the same terms, as for `OCCC1(O)CCC(O)CC1` (stereo unspecified), the figure is above 100 µM; as for `CCCCNC1=C(C(=O)OCC)C(=O)CO1`, above 100 µM.
Take `CC(C)CC(=O)[O-].CC(C)CC(=O)[O-].N.N.N.N.[Co+3].[O-][Cl+3]([O-])([O-])[O-]`: the GI50 is above 100 µM and the TGI is above 100 µM.
As for `COC(=O)CC(=O)C[P+](c1ccccc1)(c1ccccc1)c1ccccc1`, the TGI is above 218 µM.
With `CCCCN(CCCC)C(=O)C(=O)C(C#N)c1ccc(C)cc1` (stereo unspecified), the TGI is above 100 µM.
The same measure, in the same setting: as for `Cc1ccc(S(=O)(=O)C(CC(=O)N2CCCC2)C(=O)c2ccccc2)cc1` (stereo unspecified), the figure is above 100 µM.
As for `CC1(C)CC(/C=C2/OC(=O)c3ccccc32)=C(C#N)C(=O)O1`, the TGI was above 100 µM.
The compound `Cc1nc2c(nc1Cl)nc(Oc1ccc(Cl)cc1)c1ccccc12` had a TGI above 100 µM.
In turn, `CC(=O)Nc1ccccc1Sc1ccccc1` came in with a TGI above 100 µM.
In turn, `COC(=O)C[C@H]1CCC2(OCCO2)[C@]1(C)C(=O)OC` gave a TGI above 100 µM.
Still for that read-out and setting: in the case of `CCOc1ccc2c(c1)[n+]([O-])c(S(=O)(=O)c1ccc(C)cc1)c(N)[n+]2[O-]` it was above 100 µM.
On the same count and under the same terms, as for `CC12CC[C@@H](C(C)(C)O)C1[C@@H](O)CC1(C)C2CCC2[C@@]3(C)CC[C@H](O)C(C)(C)C3C(O)C[C@]21C` (stereo partly specified), the figure is 37 µM; as for `CCOC(=O)NC(=O)c1cn(C2OC(COC(=O)CCCCCCCCC(=O)OCC3OC(n4cc(C(=O)NC(=O)OCC)c(=O)[nH]c4=O)C(O)C3O)C(O)C2O)c(=O)[nH]c1=O` (stereo unspecified), above 100 µM.
The compound `Cc1ccc(C)c(NC(=O)CC/C(=N\NC(=O)C(=O)NN)C(C)C(=O)c2ccc(O)cc2)c1` (stereo unspecified) gave a TGI above 100 µM.
For `N=C1CSC2=NC3=C(CCC/C3=C\c3ccccc3)C(c3ccccc3)N12` (stereo unspecified), the TGI came out at 19.4 µM.
For `COc1ccc(CNc2cc(OC)c(OC)c(OC)c2)cc1`, the TGI is above 55.1 µM.
On to `COc1ccccc1C1C(C(=O)Nc2ccccc2)=C(C)NC(C)=C1C(=O)Nc1ccccc1`, for which the TGI was above 100 µM.
With `OCc1ccc2[n+](c1)CCC1c3ccccc3NC21` (stereo unspecified), the TGI is above 300 µM.
In the case of `COc1cccc(-c2cc(=O)c3cc(N(C)C)ccc3[nH]2)c1`, the GI50 is 0.0169 µM and 0.0296 µM and 0.00485 µM.
The compound `CCCCCCCCCCCC(=O)CC(=O)c1c(O)cccc1O` registered a TGI of 34.8 µM.
Turning to `CN(C(=O)C12C3C4C1C1C2C3C41C(=O)C(C)(C)C)C(C)(C)C` (stereo unspecified), the TGI is above 100 µM.
`Cc1cc2c(cc1C)[n+](=O)c(C(=O)CC(=O)C(=O)Nc1c(C(C)C)cccc1C(C)C)c(C)n2[O-]` had a TGI above 100 µM.
Still for that read-out and setting: as for `COc1ccc2cc1Oc1ccc(cc1)CC1c3cc(c(OC)cc3CCN1C)Oc1c3c(cc4c1C(C2)N(C)CC4)OCO3` (stereo unspecified), the figure is 21.9 µM; as for `COc1ccc(OC)c(NC(=O)C(=O)C(C(C)=O)c2nc3ccc(Cl)cc3[nH]c2=O)c1` (stereo unspecified), above 50 µM.
The compound `N#CC(C(=N/O)/C(=N/O)C(C#N)c1ccc(Cl)cc1)c1ccc(Cl)cc1` (stereo unspecified) came in with a TGI above 100 µM.

The test system of the next assay is HOP-92 NSCLC. In words: NCI-60 cell line screen, 48 h.
The compound `CC1(Cl)C(=O)NC(=O)N(C2CC(N=[N+]=[N-])C(CO)O2)C1N=[N+]=[N-]` (stereo unspecified) came in with a TGI above 100 µM.
The same measure, in the same setting: in the case of `COc1ccc2ccc3c(c2c1)CN1CCc2cc(OC)c(OC)cc2C1C3` (stereo unspecified) it was above 100 µM; in that of `OCCC1(O)CCC(O)CC1` (stereo unspecified), above 100 µM.
On to `CC(C)CC(=O)[O-].CC(C)CC(=O)[O-].N.N.N.N.[Co+3].[O-][Cl+3]([O-])([O-])[O-]`, for which the GI50 was above 100 µM and the TGI was above 100 µM.
In the case of `COC(=O)CC(=O)C[P+](c1ccccc1)(c1ccccc1)c1ccccc1`, the TGI is above 218 µM.
Take `CCCCN(CCCC)C(=O)C(=O)C(C#N)c1ccc(C)cc1` (stereo unspecified): the TGI was above 100 µM.
The compound `Cc1ccc(S(=O)(=O)C(CC(=O)N2CCCC2)C(=O)c2ccccc2)cc1` (stereo unspecified) displayed a TGI above 100 µM.
`CC(=O)Nc1ccccc1Sc1ccccc1` showed a TGI above 100 µM.
The compound `COC(=O)C[C@H]1CCC2(OCCO2)[C@]1(C)C(=O)OC` returned a TGI above 100 µM.
`CCCCCCCCCC[C@@H](O)[C@@H]1CC[C@H]([C@H]2CC[C@@H]([C@@H](O)CCCCCCCCCC[C@H]3CC(CC(C)=O)C(=O)O3)O2)O1` (stereo partly specified) gave a TGI of 33.4 µM.
On the same count and under the same terms, as for `CCOc1ccc2c(c1)[n+]([O-])c(S(=O)(=O)c1ccc(C)cc1)c(N)[n+]2[O-]`, the figure is above 100 µM.
`CC12CC[C@@H](C(C)(C)O)C1[C@@H](O)CC1(C)C2CCC2[C@@]3(C)CC[C@H](O)C(C)(C)C3C(O)C[C@]21C` (stereo partly specified) returned a TGI of 37.5 µM.
`Cc1ccc(C)c(NC(=O)CC/C(=N\NC(=O)C(=O)NN)C(C)C(=O)c2ccc(O)cc2)c1` (stereo unspecified) yielded a TGI above 100 µM.
Same read-out and setting: in the case of `COc1ccc(CNc2cc(OC)c(OC)c(OC)c2)cc1` it was above 100 µM; in that of `COc1ccccc1C1C(C(=O)Nc2ccccc2)=C(C)NC(C)=C1C(=O)Nc1ccccc1`, above 100 µM.
`OCc1ccc2[n+](c1)CCC1c3ccccc3NC21` (stereo unspecified) came in with a TGI above 300 µM.
On the same count and under the same terms, in the case of `CCCCCCCCCCCC(=O)CC(=O)c1c(O)cccc1O` it was 39 µM.
`Cc1cc2c(cc1C)[n+](=O)c(C(=O)CC(=O)C(=O)Nc1c(C(C)C)cccc1C(C)C)c(C)n2[O-]`: the TGI is above 100 µM.
The same measure, in the same setting: in the case of `COc1ccc(OC)c(NC(=O)C(=O)C(C(C)=O)c2nc3ccc(Cl)cc3[nH]c2=O)c1` (stereo unspecified) it was above 50 µM; in that of `N#CC(C(=N/O)/C(=N/O)C(C#N)c1ccc(Cl)cc1)c1ccc(Cl)cc1` (stereo unspecified), above 100 µM.
